The record followed here is patent publication US20120252865A1, “CARBAMATE DERIVATIVES IN PARTICULAR FOR THE TREATMENT OF NEUROLOGICAL DISORDERS” (SIGMA-TAU INDUSTRIE FARMACEUTICHE RIUNITE S.P.A., priority 2009, published 2012).

As a reminder, the IC50 is the concentration that inhibits the measured activity by half. In general, Ki refers to the dissociation constant of the complex between target and ligand, obtained from inhibition or displacement. A lower Ki goes with tighter binding.

Assay [1] has as its target T1, fatty acid amide hydrolase (FAAH, EC 3.5.1.4) (Mus musculus, UniProt O08914).
T1 construct: The reaction was initiated by the addition of mouse brain homogenate (40 μg); from tissue; host or cells: mouse brain homogenate
T1 sequence (O08914 1-579): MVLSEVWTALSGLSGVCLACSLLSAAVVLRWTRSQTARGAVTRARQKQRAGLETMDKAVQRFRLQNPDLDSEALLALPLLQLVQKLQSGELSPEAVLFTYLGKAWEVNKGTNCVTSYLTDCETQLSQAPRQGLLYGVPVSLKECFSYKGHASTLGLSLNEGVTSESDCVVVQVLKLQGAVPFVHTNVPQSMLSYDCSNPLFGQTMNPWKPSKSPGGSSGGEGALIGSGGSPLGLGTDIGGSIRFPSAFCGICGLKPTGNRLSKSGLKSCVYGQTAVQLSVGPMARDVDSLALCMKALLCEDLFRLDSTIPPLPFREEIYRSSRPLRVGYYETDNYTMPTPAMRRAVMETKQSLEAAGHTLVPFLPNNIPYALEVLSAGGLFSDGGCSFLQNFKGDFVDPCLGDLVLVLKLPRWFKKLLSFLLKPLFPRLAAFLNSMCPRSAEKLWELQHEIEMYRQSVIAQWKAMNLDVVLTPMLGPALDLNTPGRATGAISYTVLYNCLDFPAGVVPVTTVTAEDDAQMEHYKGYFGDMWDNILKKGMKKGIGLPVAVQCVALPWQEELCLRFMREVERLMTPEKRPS
The experiment in a line: FAAH assay: release of [1-14C]AA from [1-14C]AnNH by RP-HPLC. The assay is classed as biochemical. Conditions: mouse brain homogenate; for IC50: 37° C., 15 min, pH 9.0; for Ki: Lineweaver-Burk analysis. The protocol: The compounds of the present invention show affinity and inhibit the enzymatic activity of the fatty acid amide hydrolase enzyme.
The assay of FAAH (EC 3.5.1.4) was performed by measuring the release of [1-^14C]AA from [1-^14C]AnNH (52 mCi/mmol), using RP-HPLC. Also [^3H]AnNH (205 Ci/mmol) could be used as substrate, measuring the release of [^3H]AA under the same experimental conditions described below for [1-^14C]AnNH. Compounds of the invention, at various concentrations, were added in 200 μl hydrolase assay buffer (50 mM Tris-HCl, pH 9.0), in 2-ml Eppendorf tubes, 20 min before adding [1-^14C]AnNH2, up to a concentration of 10 μM. The reaction was initiated by the addition of mouse brain homogenate (40 μg), and after incubation at 37° C. for 15 min it was stopped by the addition of 800 μl ice-cold methanol/chloroform (2:1, v/v) with vortexing. This mixture was allowed to stand at room temperature for 30 min, then 240 μl chloroform and 240 μl water were added with vortexing. After 10 min at room temperature, the mixture was centrifuged at 3000 g for 5 min, the upper aqueous layer was removed by suction and the lower organic phase was dried by spinning the samples in a DNA MINI speedvac (Heto-Holten, Denmark), at 100 mbar and 30° C. for 30 min. The residue was dissolved into 50 μl methanol and subjected to RP-HPLC analysis for AA quantitation, as detailed below. FAAH specific activity was expressed as pmol AA released/min/mg protein. Kinetic studies were performed by Lineweaver-Burk analysis, using [1-^14C]AnNH, [1-^14C]ODNHEtOH, or [1-^14C]ODNH2 in the concentration range 0-12 μM. Fitting of the experimental points by a linear regression programme (Kaleidagraph 3.0) yielded straight lines with r values >0.97.

Another assay concerns mechanical hyperalgesia. Description: Paw withdrawal test for mechanical hyperalgesia (Randall-Selitto analgesimeter). Conditions: rat; for analgesic activity (nociceptive threshold, paw withdrawal): acute oral treatment, 30 mg/kg (FIG. 1). Format: in vivo. The protocol:
The paw withdrawal test was used to assess mechanical hyperalgesia. The nociceptive threshold, expressed in grams, was measured by applying increasing pressure to the left and right hind paws using a Randall-Selitto analgesimeter (Ugo Basile, Varese, Italy). The parameter used to quantify the nociceptive threshold was defined as the pressure (grams) at which the rat withdrew its paw. Rats were habituated to the testing procedures and handling by the investigator in the week prior to the experiment.
Dose response experiments at 10, 30 and 100 mg/kg were also conducted with ST4068, ST3911 and ST3913.

The next assay concerns the target CB2R (Homo sapiens, UniProt P34972). The experiment in a line: Selectivity profile: CB2R. The assay is classed as binding. Conditions: tested at a multiple of the FAAH IC50. The method, then: (§1) The compounds of the present invention were also evaluated with regard to their selectivity profile against the following targets: AMT, NAPE-PLD, MAGL, DAGL, CB1/CB2 and TRPV1 according to the procedures described in Maccarrone M., et al., J. Biol. Chem., 2000, 275, 13484, Fezza F., et al., Anal Biochem., 2005, 339, 113, Dinh T. P., et al., 2002, Proc. Natl. Acad. Sci. 99, 10819, Bisogno T., et al., 2003, J. Cell Biol., 163, 463, Maccarrone M., et al., J. Biol. Chem., 2000, 275, 31938, Ross R. A., et al., Br. J. Pharmacol., 2001, 132, 631.

The next assay concerns AMT. Description: Selectivity profile: AMT. The assay is classed as cell-based. The protocol: as §1
The target in the next assay is NAPE-PLD (Homo sapiens, UniProt Q6IQ20). The experiment in a line: Selectivity profile: NAPE-PLD. Conditions: tested at a multiple of the FAAH IC50. Format: biochemical. The method, then:
as §1

In the next assay the target is T2, MAGL (Homo sapiens, UniProt Q99685).
T2 sequence (Q99685 1-303): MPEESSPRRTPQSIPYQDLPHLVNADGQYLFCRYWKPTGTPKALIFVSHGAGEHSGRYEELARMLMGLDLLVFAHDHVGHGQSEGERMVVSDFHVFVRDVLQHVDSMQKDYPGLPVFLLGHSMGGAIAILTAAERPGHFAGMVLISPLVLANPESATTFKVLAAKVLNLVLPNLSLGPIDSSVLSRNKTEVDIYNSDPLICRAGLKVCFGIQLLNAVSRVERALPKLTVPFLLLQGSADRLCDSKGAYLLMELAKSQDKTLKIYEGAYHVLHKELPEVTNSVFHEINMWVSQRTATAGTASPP
The experiment in a line: Selectivity profile: MAGL. Format: biochemical. Conditions: tested at a multiple of the FAAH IC50. The method, then: as §1

For another assay, the target named is CB1R (Homo sapiens, UniProt P21554). Description: Selectivity profile: CB1R. The assay is classed as binding. Conditions: tested at a multiple of the FAAH IC50. The protocol: as §1
For another assay, the system named is TRPV1. Description: Selectivity profile: TRPV1. Format: binding. As to conditions: tested at a multiple of the FAAH IC50. The method, then: as §1
The subject of the next assay is DAGL. The experiment in a line: Selectivity profile: DAGL. The assay is classed as biochemical. Conditions: tested at a multiple of the FAAH IC50. The method, then: as §1
Setting [2] is: 100 mg/kg, compared with 30 mg/kg (FIGS. 2, 3 and 4).

CB1R, sequence (P21554 whole entry): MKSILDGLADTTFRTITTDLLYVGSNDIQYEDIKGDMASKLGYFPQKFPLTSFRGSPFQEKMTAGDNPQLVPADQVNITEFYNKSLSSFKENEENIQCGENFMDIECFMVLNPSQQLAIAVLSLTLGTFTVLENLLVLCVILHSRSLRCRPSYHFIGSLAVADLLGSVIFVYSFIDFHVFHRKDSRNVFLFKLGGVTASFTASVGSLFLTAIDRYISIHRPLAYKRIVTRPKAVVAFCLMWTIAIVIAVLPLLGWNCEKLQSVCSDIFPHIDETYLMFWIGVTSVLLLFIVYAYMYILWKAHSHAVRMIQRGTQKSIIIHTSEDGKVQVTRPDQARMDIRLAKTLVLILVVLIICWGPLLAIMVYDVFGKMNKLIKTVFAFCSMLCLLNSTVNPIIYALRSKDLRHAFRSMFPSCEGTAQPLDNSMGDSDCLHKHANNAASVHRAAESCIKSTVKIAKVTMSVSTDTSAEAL
CB2R, sequence (P34972 whole entry): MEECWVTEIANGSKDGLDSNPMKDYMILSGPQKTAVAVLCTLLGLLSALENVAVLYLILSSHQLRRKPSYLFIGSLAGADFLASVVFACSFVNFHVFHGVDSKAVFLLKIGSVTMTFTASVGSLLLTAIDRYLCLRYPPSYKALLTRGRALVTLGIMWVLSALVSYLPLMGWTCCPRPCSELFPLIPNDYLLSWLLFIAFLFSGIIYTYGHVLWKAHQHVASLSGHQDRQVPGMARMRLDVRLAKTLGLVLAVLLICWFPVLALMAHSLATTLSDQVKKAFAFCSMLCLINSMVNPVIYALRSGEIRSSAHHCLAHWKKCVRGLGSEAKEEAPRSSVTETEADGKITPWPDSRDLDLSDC
NAPE-PLD, sequence (Q6IQ20 whole entry, species assumed): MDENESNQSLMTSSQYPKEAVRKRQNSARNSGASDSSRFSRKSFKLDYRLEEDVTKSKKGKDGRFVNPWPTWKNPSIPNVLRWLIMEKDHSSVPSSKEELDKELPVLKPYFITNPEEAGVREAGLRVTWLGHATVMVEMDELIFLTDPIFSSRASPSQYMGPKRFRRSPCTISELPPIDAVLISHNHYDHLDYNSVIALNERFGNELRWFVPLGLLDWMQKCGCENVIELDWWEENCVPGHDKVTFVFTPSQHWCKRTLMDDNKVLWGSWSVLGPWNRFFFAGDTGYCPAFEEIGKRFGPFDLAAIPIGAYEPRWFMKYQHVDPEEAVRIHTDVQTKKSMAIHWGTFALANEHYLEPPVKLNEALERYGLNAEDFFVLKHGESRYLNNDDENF

`Cc1cc(C(N)=O)c(-c2cccc(OC(=O)NC3CCCCC3)c2)o1` [Example 13, cyclohexyl-carbamic acid 3-(3-carbamoyl-5-methyl-furan-2-yl)-phenyl ester] returned an IC50 in assay [1] of 100 to 500 nM.

Compound `Cc1oc(-c2cccc(OC(=O)NC3CCCCC3)c2)cc1C(N)=O` [Example 8, cyclohexyl-carbamic acid 3-(4-carbamoyl-5-methyl-furan-2-yl)-phenyl ester] yielded an IC50 in assay [1] of 100 to 500 nM.

Take `CCCCNC(=O)Oc1cccc(-n2ccc(C(=O)OCCCCCCc3ccccc3)c2)c1` [Example 12, 1-(3-butylcarbamoyloxy-phenyl)-1H-pyrrole-3-carboxylic acid 6-phenyl-hexyl ester]: the IC50 in assay [1] was in the range of 100 to 500 nM.

In [1], `CCCCNC(=O)Oc1cccc(-c2oc(C)cc2C(=O)OCC)c1` [Example 10, 2-(3-butylcarbamoyloxy-phenyl)-5-methyl-furan-3-carboxylic acid ethyl ester] came in with an IC50 of 100 to 500 nM.

In assay [1], `Cc1cc(C(N)=O)c(-c2cccc(OC(=O)NCCCCCCc3ccccc3)c2)o1` [Example 6, (6-phenyl-hexyl)-carbamic acid 3-(3-carbamoyl-5-methyl-furan-2-yl)-phenyl ester] gave an IC50 below 10 nM and a Ki below 10 nM. In addition, the “analgesic activity, dose response” value in the assay with mechanical hyperalgesia (30 mg/kg (FIGS. 2, 3 and 4)) is listed as “did exert analgesic activity”. In addition, in the assay with mechanical hyperalgesia (setting [2]), the “analgesic activity, dose response” value is on record as “higher effect”. For the same compound, in the assay with mechanical hyperalgesia, the “analgesic activity (nociceptive threshold, paw withdrawal)” value is on record as “significant analgesic activity”.

In assay [1], `C#CCCCCCCCCCNC(=O)Oc1cccc(-n2ccc(C(N)=O)c2)c1` [Example 2, undec-10-ynyl-carbamic acid 3-(3-carbamoyl-pyrrol-1-yl)-phenyl ester] gave an IC50 below 10 nM and a Ki below 10 nM. Moreover, the “analgesic activity, dose response” value in the assay on mechanical hyperalgesia (30 mg/kg (FIGS. 2, 3 and 4)) is given as “did exert analgesic activity”. The “analgesic activity, dose response” value in the assay on mechanical hyperalgesia (setting [2]) is “higher effect”. The “analgesic activity (nociceptive threshold, paw withdrawal)” value in the assay on mechanical hyperalgesia was “significant analgesic activity”.

In [1], `CCCCNC(=O)Oc1cccc(-c2oc(C)cc2C(N)=O)c1` [Example 5, butyl-carbamic acid 3-(3-carbamoyl-5-methyl-furan-2-yl)-phenyl ester] returned an IC50 of 500 to 5000 nM and a Ki of 100 to 500 nM.

On to `CCCCNC(=O)Oc1cccc(-n2ccc(C(N)=O)c2)c1` [Example 1, butyl-carbamic acid 3-(3-carbamoyl-pyrrol-1-yl)-phenyl ester], for which, in assay [1], the IC50 was in the range of 100 to 500 nM and the Ki lay in the range of 10 to 100 nM.

`Cc1cc(C(N)=O)c(-c2cccc(OC(=O)NCCCCCCc3ccccc3)c2)s1` [Example 7, (6-phenyl-hexyl)-carbamic acid 3-(3-carbamoyl-5-methyl-thiophen-2-yl)-phenyl ester]: on CB2R, the “inhibitory activity on CB2R” value is “−−−− (1000 times [IC50] with an inhibitory activity on the target <60%)”. In assay [1], this compound gave an IC50 below 10 nM and a Ki below 10 nM. Further, the “AMT, % @ 1 μM” value with AMT came out at 60% @ 1 μM. Further, the “inhibitory activity on NAPE-PLD” value at NAPE-PLD is “−−−− (1000 times [IC50] with an inhibitory activity on the target <60%)”. For the same compound, the “inhibitory activity on MAGL” value on MAGL is “−−−− (1000 times [IC50] with an inhibitory activity on the target <60%)”. For the same compound, the “inhibitory activity on CB1R” value against CB1R is “−−−− (1000 times [IC50] with an inhibitory activity on the target <60%)”.

In [1], `C#CCCCCCCCCCOC(=O)c1ccn(-c2cccc(OC(=O)NCCCC)c2)c1` [Example 11, 1-(3-butylcarbamoyloxy-phenyl)-1H-pyrrole-3-carboxylic acid undec-10-ynyl ester] yielded a 50% inhibitory concentration (IC50) of 100 to 500 nM.

`Cc1cc(C(N)=O)c(-c2cccc(OC(=O)NC3CCCCC3)c2)s1` [Example 14, cyclohexyl-carbamic acid 3-(3-carbamoyl-5-methyl-thiophen-2-yl)-phenylester] registered an IC50 in assay [1] of 100 to 500 nM.

For the compound `Cc1oc(-c2cccc(OC(=O)NCCCCCCc3ccccc3)c2)cc1C(N)=O` [Example 9, (6-phenyl-hexyl)-carbamic acid 3-(4-carbamoyl-5-methyl-furan-2-yl)-phenyl ester], the “inhibitory activity on TRPV1” value with TRPV1 was “−−−− (1000 times [IC50] with an inhibitory activity on the target <60%)”. For the same compound, the “inhibitory activity on CB2R” value against CB2R was “−−−− (1000 times [IC50] with an inhibitory activity on the target <60%)”. In addition, in [1], the IC50 lay in the range of 10 to 100 nM and the Ki is below 10 nM. In addition, the “AMT, % @ 1 μM” value in the assay with AMT came out at 80% @ 1 μM. The “inhibitory activity on NAPE-PLD” value at NAPE-PLD was “−−−− (1000 times [IC50] with an inhibitory activity on the target <60%)”. Further, in the assay with DAGL, the “inhibitory activity on DAGL” value is “−−−− (1000 times [IC50] with an inhibitory activity on the target <60%)”. Also, on MAGL, the “inhibitory activity on MAGL” value was “−−−− (1000 times [IC50] with an inhibitory activity on the target <60%)”. The “inhibitory activity on CB1R” value against CB1R is “−−−− (1000 times [IC50] with an inhibitory activity on the target <60%)”.

As for `NC(=O)c1ccn(-c2cccc(OC(=O)NC3CCCCC3)c2)c1` [Example 3, cyclohexyl-carbamic acid 3-(3-carbamoyl-pyrrol-1-yl)-phenyl ester], in [1], the IC50 was 100 to 500 nM and the inhibition constant (Ki) lay in the range of 10 to 100 nM.
